“Also recorded” adds a separate entry of the source. Where a SMILES comes first, the peptide text is derived from it. The star is where a group is joined. Cbz = O=C(OCc1ccccc1)*
What was measured:
[1] = system: zona-enclosed oocytes / boar spermatozoa; test: Porcine in vitro fertilization of zona-enclosed (zona-intact) oocytes with inhibitor or antibody in the fertilization medium; format: cell-based; conditions: for Monospermic (%) / Monospermic (number of oocytes) / Not fertilized (%) / Not fertilized (number of oocytes) / Polyspermic (%) / Polyspermic (number of oocytes): 10 uM in culture medium at the time of insemination, 20 h p.i.; for penetration of ZP: 100 uM concentration; for fertilization of zona-enclosed (zona-intact) oocytes: agent in fertilization medium during porcine IVF
[2] = system: bovine ova / bull spermatozoa; test: Bovine in vitro fertilization; format: cell-based
Description: The effect of proteasomal interference on the ability of bull spermatozoa to fertilize bovine ova was analyzed in vitro. Specific, fully reversible proteasomal inhibitor MG132 (100 μM) was added to fertilization medium at the time of insemination. This allowed fertilization to occur only in 3 out of […] ova examined at 20 h post insemination (2.8% rate of fertilization; Table 2). […] Proteasomes in pronuclei were detected with an antibody against α-type and β-type proteasomal subunits. DNA was visualized with DAPI (blue).
However, several groups of ova were preincubated with 100 μM MG132 for 2 hours prior to fertilization to rule out that MG132 could block or hinder fertilization by a direct effect on zona pellucida oolemma or ooplasm, as opposed to an inhibitory effect on sperm acrosome-borne proteasomes (Sutovsky et al., 2003a, b).

pronuclei of bovine ova = test: Pronuclear development in bovine fertilized ova (immunofluorescence); format: cell-based
Description: The ubiquitin-proteasome pathway was until recently ascribed solely to cytoplasmic compartment. The presence and proteolytic activity of proteasomes in the nuclear compartment of […] was analyzed. Specific immune sera were used for the immunolocalization of proteasomal subunits LMP2, α/β and MECL1 in bovine pronuclear zygotes at various stages of pronuclear development. […] Proteasomal subunits started to infiltrate both male and female pronuclei at the initial stage of sperm nuclear decondensation. Both the male and the female pronuclei become occupied by proteasomes prior to reaching full size and apposition. High density of proteasomes was observed inside the apposed, full-sized pronuclei in both monospermic and polyspermic ova, and in cases of asynchronous pronuclear development. […] The sperm tail was visualized by the preincubation of spermatozoa prior to fertilization with a vital mitochondrial dye MitoTracker Green FM (green).
Such fertilization in presence of low concentration MG132 allowed the observation of the effects of proteasomal interference on pronuclear development. […] DNA was stained with blue fluorecent DAPI and sperm tails inside the fertilized ova were identified by the presence of green fluorescence, which accumulated in sperm mitochondrial sheath during sperm preincubation with MitoTracker GreenFM. […]

[3] = system: bovine ova / bull spermatozoa; test: Bovine in vitro fertilization; format: cell-based; conditions: 10 μM MG132
rat ova = conditions: Josefsberg et al., 2000; cited from earlier work
[4] = system: ubiquitin-immuno-reactive ZP proteins; test: Western blotting / Coomassie staining of ubiquitin-immuno-reactive ZP proteins after IVF; format: cell-based, porcine; conditions: MG132 in fertilization medium; 6 h p.i.
Description: SDS-PAGE and Western blotting were carried out as generally described in Sambrook et al. (2001). Oocytes and zygotes were removed from culture at given time points, washed repeatedly in a protein-free TALP HEPES and 350 zygotes per group were boiled for 5 min in […] of loading buffer containing Tris (50 mM), β-mercaptoethanol (5%), glycerol (10%), SDS (2%) and PMSF (100 mM). Boar sperm proteins were extracted by grinding in extraction buffer (50 mM Tris, 20 mM imidazole, 1 mM EDTA, 5 mM benzamidine HCl, 5 μg/ml leupeptine, 1 μg/ml pepstatin A, 100 mM PMSF and 0.1% SDS), centrifuged at 17000×g for 30 min. β-mercaptoethanol, glycerol, SDS were added to the supernatants, achieving the final concentrations as that of the loading buffer. Human spermatozoa were boiled with loading buffer, followed by centrifugation at 25000×g for 30 min to remove the DNA pellet. […] After incubating overnight with the primary anti-ubiquitin antibodies and then with the appropriate biotin-conjugated secondary antibodies, the signals were detected with alkaline phosphatase reaction, using Vectastain ABC-AmP kit (Vector Lab Inc., Burlingame, Calif.).
Next, it was determined whether some of the ubiquitin-immuno-reactive ZP substrates undergo degradation after sperm binding to ZP, and whether such degradation can be prevented by proteasomal inhibitors. […]

[5] = system: zona-free oocytes / boar spermatozoa; test: Porcine in vitro fertilization of zona-free oocytes; format: cell-based
Description: IVF was performed using zona-enclosed and zona-free (ZF or ZP−) oocytes in the presence or absence of MG132 and antibody MECL-1. Removal of the zona pellucida was accomplished by a brief (30 sec) exposure of oocytes to 0.5% pronase (Sigma, St. Louis, Mo.). Oocytes were washed extensively and ZF oocytes were allowed to recover from enzymatic treatment for 1 h prior to insemination. For IVF, ZF oocytes were co-incubated with 1×10^5 sperm/ml while zona-enclosed/zona-intact (ZI or ZP+) oocytes were treated as described above. Oocytes were fixed 12 h post insemination (p.i.) in 25% acetic acid/ethanol and stained with 1% orcein to determine the incidence of fertilization. In some experiments, oocytes were evaluated by immunofluorescence microscopy, detecting the presence of pronuclei and sperm tails in the zygotic cytoplasm.
To ascertain that the fertilizing capability of boar spermatozoa was not diminished by some non-specific effect of proteasomal inhibitors on the sperm motility or sperm ability to fuse with the oocyte plasma membrane, porcine oocytes were stripped of ZP and fertilized with acrosome-intact spermatozoa in the presence or absence of MG132 (FIG. 5 A-H). […] MG132 had no effect on the fertilization of zona-intact oocytes when either oocytes or spermatozoa were pre-incubated with it and used for insemination after extensive washing.

[6] = system: boar spermatozoa bound to the zona pellucida; test: Sperm-zona binding and sperm acrosomal status (DAPI, c-Yes immunofluorescence); format: cell-based, porcine
Description: To evaluate sperm-zona binding and sperm acrosomal status, zona-enclosed oocytes were fixed and the tyrosine kinase c-Yes, known to be present in the subacrosomal and outer acrosomal layer of perinuclear theca in spermatozoa with an intact acrosome (Leclerc and Goupil, 2002) was evaluated by immunofluorescence. The number of spermatozoa bound to the zona pellucida was determined after staining with DAPI. Five eggs per group were counterstained with an antibody against the acrosomal tyrosine kinase c-Yes (see Immunofluorescence) and DAPI and photographed at 60× magnification. ZP-bound acrosome-reacted and acrosome intact spermatozoa were counted and the values were expressed as a percent (%) of acrosome intact sperm/egg. Treatment results were compared by χ2 test and by general linear model procedures of SAS 8.2.
It was first observed that proteasomal inhibitors lactacystin and MG132 prevent fertilization in the course of studies aimed at confirming the proteasomal route of degradation of the paternal, sperm mitochondria inside the porcine zygote (Sutovsky et al., 2003). This study was followed up on by experiments designed to determine at which step of fertilization the inhibitors exert the block. […] The experiment was repeated four times with consistent results. […] To rule out that MG132 affects sperm viability, sperm-zona binding or acrosomal exocytosis, oocytes fertilized in the presence of 10 μM MG132 were fixed with their zona pellucida intact at 20 h p.i. Sperm heads bound to ZP were detected with DAPI and intact acrosomes were detected by antibodies against tyrosine kinase c-Yes, known to reside in the sub-acrosomal and outer acrosomal layer of perinuclear theca of acrosome-intact spermatozoa (FIG. 1 A-D). Since the spermatozoa in this experiment were pre-labeled with MitoTracker CMTM Ros, the sperm mitochondrial sheaths were rendered detectable inside the fertilized oocytes. […] However, there was no significant difference in the number of sperm bound per egg (99.3 with MG132 vs. 93.3 in control) or in the percentage of acrosome-intact, zona-bound sperm (2.01% with MG132 vs. 2.14% in control).

[7] = 100 μM at fertilization, 20 h post insemination
[8] = 100 μM at fertilization, 20 h post insemination, listed as MG 132
[9] = 100 μM ovum preincubation 2 h, IVF in absence of MG132
[10] = 10 μM MG132, 20 hours post insemination

## CC(=O)N[C@@H](CSC(=O)[C@]1([C@@H](O)C(C)C)NC(=O)[C@H](C)[C@@H]1O)C(=O)O [lactacystin]
[1]
  Monospermic (%): 65%
  Monospermic (number of oocytes): 13
  Not fertilized (%): (25%)
  Not fertilized (number of oocytes): 5
  Polyspermic (%): 10%
  Polyspermic (number of oocytes): 2
  penetration of ZP: completely inhibited
  fertilization of zona-enclosed (zona-intact) oocytes: completely prevented fertilization
[1]; listed as Lactacystin
  Monospermic (%): (65%)
  Polyspermic (%): (10%)
[1]; 10 uM lactacystin
  fertilization at threshold concentration: did not prevent fertilization
[1]; added at the time of insemination
  effect on fertilization rates: dose-dependent effect
[1]; lactacystin at 100 μm concentration
  block of fertilization: 100%

## CC(C)C[C@@H](C=O)NC(=O)[C@H](CC(C)C)NC(=O)[C@H](CC(C)C)NC(=O)OCc1ccccc1 [MG132, Z-Leu-Leu-Leu-CHO] (Cbz-Leu-Leu-Leu-aldehyde)
[2]; 100 μM MG132
  block of bovine fertilization: completely
[2]; 100 μM at fertilization
  M-II/partheno (number of ova): 40
  Partheno (number of ova): 0
[2]; [7]
  Fertilized (%), rate of fertilization: 2.8%
  Fertilized (number of ova): 3
[2]; [8]
  Fertilized (%), rate of fertilization: (2.44%)
  Fertilized (number of ova): 1
[2]; [9]
  Fertilized (%), fertilization rate: 97.5%
  Fertilized (number of ova): 40
  M-II/partheno (number of ova): 1
  Partheno (number of ova): 0
[2]; 100 μM ovum preincubation 2 h, IVF in absence of MG132, listed as MG 132
  Fertilized (%), fertilization rate: (97.56%)
[2]; preincubation of unfertilized ova with 100 μM MG132 for 2 h prior to IVF in absence of MG132
  effect on fertilization or pronuclear development: had no effect on fertilization or pronuclear development
[2]; treatment during bovine IVF
  anomalies in oocyte morphology: Neither MG132 nor anti-MECL1 treatments were accompanied by identifiable anomalies
[1]; 10 μM MG132, fixed at 20 h p.i.
  fertilization: 0%
[1]
  Monospermic (number of oocytes): 0
  Not fertilized (%): (100%)
  Not fertilized (number of oocytes): 19
  Polyspermic (number of oocytes): 0
  penetration of ZP: completely inhibited
  fertilization of zona-enclosed (zona-intact) oocytes: completely prevented fertilization; also recorded: inhibited in vitro fertilization
[1]; MG132 added at the time of insemination, four trials
  oocytes in which fertilization was prevented: 100%
[1]; oocytes or spermatozoa pre-incubated with MG132, extensive washing before insemination
  fertilization of zona-intact oocytes after pre-incubation: had no effect
Pronuclei of bovine ova; fertilized in presence of 10 μM MG132
  pronuclear development in fertilized ova: Abnormal pronuclear development and premature chromosome condensation (PCC) was observed
Pronuclei of bovine ova; preincubation of ova with 100 μM MG132 prior to fertilization
  import of proteasomal subunits into pronuclei: had no effect
[3]
  block of bovine fertilization: inhibited the fertilization only partially
[3]; two separate trials
  average fertilization rate: 38.2%
Rat ova
  progression of meiosis and pronuclear development: inhibited
[4]
  degradation of ZP-contributed oocyte proteins after IVF: effectively prevented
[5]; agent present during porcine IVF
  fertilization of zona-free oocytes: had no effect
[5]; in the presence or absence of MG132, most polyspermic
  zona-free oocytes fertilized: 92-96%
[6]; [10]
  gamete viability, sperm-egg binding and sperm-acrosome reaction: does not impair
  spermatozoa with intact acrosomes on an oocyte (FIG. 1C): three
[6]; 10 μM MG132, 20 h p.i.
  number of sperm bound per egg: 99.3
  percentage of acrosome-intact, zona-bound sperm: 2.01%
[6]; ZP+/MG132+ zygotes used for western blotting
  sperm-oocyte binding examined by light microscopy: not affected

— US20100233249A1, “CONTRACEPTIVE METHODS AND COMPOSITIONS RELATED TO PROTEASOMAL INTERFERENCE” (priority 2003, published 2010)
